Laboratory results from the METLIN SMRT retention time set (Domingo-Almenara et al. 2019).

Assay: gradient 5% acetonitrile 3 min, to 50% in 2 min, to 85% in 15 min, held 3 min, 100 µL/min
Details: column: Zorbax Extend-C18 2.1 x 50 mm; eluents: water / acetonitrile, 0.1% formic acid
How it was run: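 Using water and acetonitrile that each contained 0.1% formic acid, mixtures of ~100 pure standards were separated at 100 μL/min on a Zorbax Extend-C18 column (2.1 × 50 mm, 1.8 μm). The HPLC fed a quadrupole time-of-flight mass spectrometer working in positive and negative ionization mode, with dead and dwell volumes of 40 μL and 900 μL. Data were acquired over 3 months. Retention time was read from computationally picked adduct peaks after manual inspection of each.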

Compared with CN1CCN(C(CNC(=O)Cc2ccc(Cl)cc2)c2ccc3c(c2)OCO3)CC1 (stereo not given), O=C(Cc1c(F)cccc1Cl)NCC(=O)N1CCN(c2ccccn2)CC1 is higher in RP-LC retention time: 587 s for the first, 605 s for the second.

First: CCOc1ccc(CCNC(=O)c2nc(CCS(=O)(=O)c3ccccc3)no2)cc1OCC
Second: CCc1noc(NC(C)=O)c1-c1ccc(OC)c(S(=O)(=O)N2CCc3ccccc32)c1
The RP-LC retention time of the first is higher: 900 s for the first, 860 s for the second.

Going from Cc1noc(-c2cccn2Cc2ccccc2F)n1 to CC1=NS(=O)(=O)N(Cc2ccccc2)C=C1C(=O)OCc1noc(-c2ccccc2C)n1, the RP-LC retention time rises from 1050 s to 1170 s.

Compared with Cc1cc(C)c(S(=O)(=O)Nc2cccc(-c3cn4cccc(C)c4n3)c2)cc1C, Cc1ccc(-c2cc3c4nn(CC(=O)NCc5ccco5)c(=O)n4ccn3n2)cc1C is higher in RP-LC retention time: 743 s for the first, 874 s for the second.

Going from O=C(c1cccs1)N1CCN(c2ccc3nnc(-c4ccco4)n3n2)CC1 to CC1(C)CS(=O)(=O)N(c2cccc(C(=O)N3CCN(c4ccccn4)CC3)c2)C1=O, the RP-LC retention time falls from 631 s to 608 s.

First: Cc1ccc(C(=O)Nc2nc(-c3ccc4c(c3)NC(=O)C(C)O4)c(C)s2)cc1 (stereo not given)
Second: COc1ccc(-c2nc(C)cc3nn(CC(=O)Nc4cc(C)cc(C)c4)c(=O)n23)cc1
The RP-LC retention time of the first is higher: 1010 s for the first, 906 s for the second.

First: COc1ccc(C2C(C(=O)NCCCN3CCCCCC3)CCC(=O)N2c2ccc(OC)cc2)cc1 (stereo not given)
Second: COc1ccc(C(=O)c2cnc3ccc(OC)cc3c2N2CCOCC2)cc1
The RP-LC retention time of the first is lower: 589 s for the first, 677 s for the second.

Compared with CCn1cc(CCN2CCN(S(=O)(=O)c3cccs3)CC2)c2cccnc21, CCN1CCN(CCNC(=O)c2c(N3CCCC3=O)c3cc(F)ccc3n2CC)CC1 is lower in RP-LC retention time: 962 s for the first, 614 s for the second.

First: Cc1cccc(S(=O)(=O)N2CCc3nc[nH]c3C2)c1
Second: Cc1nc(-c2csc(S(=O)(=O)N3CCCC(C(=O)Nc4cccc(C)c4C)C3)c2)no1 (stereo not given)
The RP-LC retention time of the first is lower: 590 s for the first, 951 s for the second.

Going from O=S(=O)(c1ccc(Cl)c(-c2nnc(-c3ccccc3)o2)c1)N1CCOCC1 to O=C(Nc1ccc2c(c1)OCCO2)N1CCCC(c2nnnn2-c2ccccc2)C1 (stereo not given), the RP-LC retention time falls from 946 s to 792 s.

First: CC(=O)Nc1ccc(OCc2cc(C(=O)NC3CCC(C)CC3)no2)cc1 (stereo not given)
Second: Cc1cc(-c2nnc(C3CC3)o2)c(C)n1CC(=O)Nc1ccc(F)cc1
The RP-LC retention time of the first is higher: 860 s for the first, 792 s for the second.

Compared with O=C(c1ccco1)N1CCCC(OCc2nc(C3CC3)no2)C1 (stereo not given), CNC(=O)c1cc[nH]c1C1CCCN(C(=O)c2ccc(Br)o2)C1 (stereo not given) is lower in RP-LC retention time: 732 s for the first, 674 s for the second.

Compared with CNC(=O)C1CCCN(c2nc3ncn(CC(=O)Nc4cccc(Cl)c4)c(=O)c3s2)C1 (stereo not given), Cc1ccc(-c2ccc(N3CCCC(C(=O)NC4CC4)C3)nn2)cc1 (stereo not given) is lower in RP-LC retention time: 672 s for the first, 631 s for the second.

First: CCc1nc(-c2csc(S(=O)(=O)N3CCCC(C(=O)NCc4ccc(C)o4)C3)c2)no1 (stereo not given)
Second: Cc1cc(-c2ccc(S(=O)(=O)N3CCC(C(=O)NCC4CCCCC4)CC3)o2)n[nH]1
The RP-LC retention time of the first is higher: 946 s for the first, 840 s for the second.

First: CCOC(=O)c1sc(NC(=O)Cn2c(=O)oc3ccccc32)nc1C
Second: CCc1cc(=O)n(CC(=O)Nc2cc(OC)ccc2OC)c(N2CCOCC2)n1
The RP-LC retention time of the first is lower: 778 s for the first, 967 s for the second.

Going from CC[C@@H](Nc1c(Nc2cccc(C(=O)N(C)C)c2O)c(=O)c1=O)c1cc(C(C)C)co1 to CCN1C(=O)COc2ccc(-c3csc(NC(=O)CC(C)C)n3)cc21, the RP-LC retention time rises from 772 s to 928 s.

Going from c1cc(-c2sc(-c3ccncc3)c(-c3ccncc3)c2-c2ccncc2)ccn1 to CC1=C(c2ccc(F)cc2)S(=O)(=O)N=C1N1CCCN(C(=O)c2ccncc2)CC1, the RP-LC retention time rises from 575 s to 649 s.

Going from CCN1c2ccccc2C(=O)NC12CCN(C(=O)Cc1ccccc1C)CC2 to CCn1nc(N2CCCC(NC(=O)C3(c4ccccc4)CCCC3)C2)ccc1=O (stereo not given), the RP-LC retention time falls from 849 s to 792 s.

First: CCCCOc1ccc(-c2cc3c4nnc(CCC(=O)N5CCN(C)CC5)n4ccn3n2)cc1
Second: Cn1ccc2cc(CCC(=O)N3CCN(c4ccc(F)cc4)CC3)ccc21
The RP-LC retention time of the first is lower: 686 s for the first, 951 s for the second.

Going from COc1ccccc1C(=O)N1CCCC(c2nnc(C)s2)C1 (stereo not given) to CC1=C(c2ccccc2)S(=O)(=O)N=C1N1CCCN(C(=O)C2CCC2)CC1, the RP-LC retention time rises from 646 s to 769 s.

First: O=C1OCC/C1=C\c1ccc(O)cc1
Second: CCOC(=O)COc1cccc2c1CCN(Cc1ccc(Cl)cc1)C2=O
The RP-LC retention time of the first is lower: 711 s for the first, 934 s for the second.

Going from Cc1cc(C)c(Nc2ccnc(Nc3ccc(C#N)cc3)n2)c(C)c1 to CCn1c(=O)oc2cc(-c3noc(-c4n[nH]c5c4CCCC5)n3)ccc21, the RP-LC retention time rises from 798 s to 914 s.

In the case of CCOC(=O)c1c(C)n(C)c2ccc(OCC(O)CN3CCCCC3)cc12 (stereo not given), the RP-LC retention time was 643 s.
